The target of this assay is T1, human EP3 receptor (Homo sapiens, UniProt P43115).
T1 construct: expressed in transfected cells; host or cells: CHO K1 (Chinese Hamster Ovary), stably co-transfected with Galpha16 and mitochondrial clytin
T1 sequence (P43115 1-390): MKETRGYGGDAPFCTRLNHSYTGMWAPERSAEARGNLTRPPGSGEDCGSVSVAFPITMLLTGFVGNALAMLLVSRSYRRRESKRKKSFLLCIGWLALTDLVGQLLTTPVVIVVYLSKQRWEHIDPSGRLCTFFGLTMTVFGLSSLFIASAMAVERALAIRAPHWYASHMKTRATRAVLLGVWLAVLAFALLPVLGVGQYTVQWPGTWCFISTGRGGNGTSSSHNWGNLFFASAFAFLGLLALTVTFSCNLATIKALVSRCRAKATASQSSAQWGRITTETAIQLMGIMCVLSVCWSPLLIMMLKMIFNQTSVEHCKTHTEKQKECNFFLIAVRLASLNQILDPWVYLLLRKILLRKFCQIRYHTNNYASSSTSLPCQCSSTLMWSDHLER
As to the kind of experiment: Cellular in vitro assay for determining EP3 receptor activity (human EP3 cell line, sulprostone-stimulated calcium luminescence). In kind it is cell-based. The conditions noted are these: CHO cells expressing human EP3 and mitochondrial Clytin; antagonist mode, sulprostone at EC50; read-out: EP3 CHO mtCLY ANTAG IC50. The gist of the method: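 Antagonist activity was measured as inhibition of the luminescent calcium signal elicited by EC50 sulprostone, following 10 min compound pretreatment. The cell line was recombinant CHO K1 co-expressing human EP3, Gα16 and the photoprotein Clytin, reconstituted with coelenterazine.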
Usually IC50 stands for the concentration that inhibits the measured activity by half. `CC(NC(=O)c1cc2c(=O)[nH]c(-c3ccc4cccnc4c3)cn2n1)c1ccc(F)cc1` (stereo not shown) [6-27]: the IC50 turned out to be 2.63 nM. The figure for `CC(NC(=O)c1cc2c(=O)[nH]c(-c3ccc4cccnc4c3)cn2n1)c1ccc(F)c(F)c1` (stereo not shown) [6-28] is 3.9 nM; for `CC(C)(C)OC(=O)NCC(NC(=O)c1cc2c(=O)[nH]c(-c3ccc4cccnc4c3)cn2n1)c1ccc(F)cc1` (stereo not shown) [6-29] it is 2.27 nM.

For the molecule `O=C(NC(CO)c1ccc(F)cc1)c1cc2c(=O)[nH]c(-c3ccc4cccnc4c3)cn2n1` (stereo not shown) [6-30], the IC50 is 2.15 nM. Under `COc1ccc(C(CCO)NC(=O)c2cc3c(=O)[nH]c(-c4ccc(C(F)(F)F)c(C)c4)cn3n2)cc1` (stereo not shown) [6-31] stands 8.03 nM; under `COc1ccc(C(CCO)NC(=O)c2cc3c(=O)[nH]c(-c4ccc(C)c(C(F)(F)F)c4)cn3n2)cc1` (stereo not shown) [6-32], 7.5 nM; under `Cc1cc(-c2cn3nc(C(=O)NC(C)c4ccccc4OC(F)F)cc3c(=O)[nH]2)ccc1C(F)(F)F` (stereo not shown) [6-33], 8.15 nM. Take `Cc1ccc(-c2cn3nc(C(=O)N[C@H](C)c4ccc(F)cc4)cc3c(=O)[nH]2)cc1C` [6-36]: the IC50 turned out to be 1.2 nM. Under `O=C(NC(CO)c1ccc(F)cc1)c1cc2c(=O)[nH]c(-c3ccc4cccc(F)c4c3)cn2n1` (stereo not shown) [6-37] stands 1.31 nM; under `C[C@@H](NC(=O)c1cc2c(=O)[nH]c(-c3ccc4cccc(F)c4c3)cn2n1)c1ccc(F)cc1` [6-38], 1.45 nM; under `CCCNC(=O)c1cc2c(=O)[nH]c(-c3ccc4cccc(F)c4c3)cn2n1` [6-40], 7.5 nM. Under `O=C(NCCC(F)(F)F)c1cc2c(=O)[nH]c(-c3ccc4cccc(F)c4c3)cn2n1` [6-41] stands 6.03 nM; under `Cc1ccc(-c2cn3nc(C(=O)NC(CNC(=O)OC(C)(C)C)c4ccc(F)cc4)cc3c(=O)[nH]2)cc1C` (stereo not shown) [6-42], 4.85 nM; under `CC(C)(C)OC(=O)NCC(NC(=O)c1cc2c(=O)[nH]c(-c3ccc4c(c3)OCCO4)cn2n1)c1ccc(F)cc1` (stereo not shown) [6-43], 3.15 nM. The figure for `Cc1ccc(-c2cn3nc(C(=O)NC(C)(C)c4ccc(F)cc4)cc3c(=O)[nH]2)cc1C` [6-45] is 2.55 nM; for `COC[C@H](NC(=O)c1cc2c(=O)[nH]c(-c3ccc4c(c3)OCCO4)cn2n1)c1ccccc1` [6-46] it is 2.43 nM.

Turning to `O=C(NC(CCn1cncn1)c1ccccc1)c1cc2c(=O)[nH]c(-c3ccc4c(c3)OCCO4)cn2n1` (stereo not shown) [6-47], the IC50 was 2.17 nM.

For `O=C(NC(CCn1cncn1)c1ccccc1)c1cc2c(=O)[nH]c(-c3ccc4ccccc4c3)cn2n1` (stereo not shown) [6-48], the IC50 is 5.7 nM. The figure for `COC[C@@H](NC(=O)c1cc2c(=O)[nH]c(-c3ccc4c(c3)OCCO4)cn2n1)c1ccccc1` [6-49] is 1.6 nM; for `COC[C@H](NC(=O)c1cc2c(=O)[nH]c(-c3ccc(C)c(C)c3)cn2n1)c1ccccc1` [6-50] it is 1.3 nM.

In the case of `COC[C@@H](NC(=O)c1cc2c(=O)[nH]c(-c3ccc4ccccc4c3)cn2n1)c1ccccc1` [6-51], the IC50 worked out at 2.65 nM. Under `CC(CC(F)(F)F)NC(=O)c1cc2c(=O)[nH]c(-c3ccc4ccccc4c3)cn2n1` (stereo not shown) [6-52] stands 3.55 nM.

Take `CC(C)(C)OC(=O)N1CC(NC(=O)c2cc3c(=O)[nH]c(-c4ccc5c(c4)OCCO5)cn3n2)(c2ccc(F)cc2)C1` [6-54]: the IC50 stood at 3.35 nM.

Take `Cc1ccc(-c2cn3nc(C(=O)NC4(c5ccc(F)cc5)COC4)cc3c(=O)[nH]2)cc1C` [6-55]: the IC50 was 1.53 nM. The figure for `O=C(NC1(c2ccc(F)cc2)COC1)c1cc2c(=O)[nH]c(-c3ccc4ccccc4c3)cn2n1` [6-56] is 0.74 nM; for `COc1ccc(C2(NC(=O)c3cc4c(=O)[nH]c(-c5ccc6c(c5)OCCO6)cn4n3)CN(C(=O)OC(C)(C)C)C2)cc1` [6-58] it is 2.3 nM.

`[N-]=[N+]=NC[C@H](NC(=O)c1cc2c(=O)[nH]c(-c3ccc4ccccc4c3)cn2n1)c1ccccc1` [6-59]: the IC50 turned out to be 4.2 nM.

With `CCC(NC(=O)c1cc2c(=O)[nH]c(-c3ccc4ccccc4c3)cn2n1)C(F)(F)F` (stereo not shown) [6-61], the IC50 came to 4.13 nM. The figure for `C[C@@H](NC(=O)c1cc2c(=O)[nH]c(-c3cnc4ccccc4c3)cn2n1)c1ccc(F)cc1` [6-62] is 3.13 nM. As to `COc1ccc(C2(NC(=O)c3cc4c(=O)[nH]c(-c5ccc6ccccc6c5)cn4n3)CN(C)C2)cn1` [6-63], the IC50 is 7.1 nM.

In the case of `Cc1cccc2ncc(-c3cn4nc(C(=O)N[C@H](C)c5ccc(F)cc5)cc4c(=O)[nH]3)cc12` [6-64], the IC50 is 2.5 nM. Under `O=C(N[C@H](CN1CCOCC1)c1ccc(F)cc1)c1cc2c(=O)[nH]c(-c3ccc4ccccc4c3)cn2n1` [6-67] stands 1.58 nM; under `C[C@@H](NC(=O)c1nn2cc(-c3ccc4ccccc4c3)[nH]c(=O)c2c1C#N)c1ccc(F)cc1` [6-68], 2.35 nM. As for `N#Cc1c(C(=O)NC2(c3ccc(F)cc3)CC2)nn2cc(-c3ccc4ccccc4c3)[nH]c(=O)c12` [6-70], the IC50 came to 4.75 nM. The figure for `Cc1c(C(=O)NC2(c3ccc(F)cc3)CC2)nn2cc(-c3ccc4ccccc4c3)[nH]c(=O)c12` [6-71] is 2.85 nM; for `O=C(N[C@H]1c2ccccc2C[C@H]1O)c1cc2c(=O)[nH]c(-c3ccc4ccccc4c3)cn2n1` [6-72] it is 7.93 nM.

On to `O=C(N[C@H]1c2ccccc2C[C@@H]1O)c1cc2c(=O)[nH]c(-c3ccc4ccccc4c3)cn2n1` [6-73], for which the IC50 was determined as 8.3 nM. Under `O=C(N[C@@H]1c2ccccc2C[C@@H]1O)c1cc2c(=O)[nH]c(-c3ccc4ccccc4c3)cn2n1` [6-74] stands 5.77 nM. Turning to `COc1ccc(CCNC(=O)c2cc3c(=O)[nH]c(-c4ccc5ccccc5c4)cn3n2)cc1OC` [6-75], the IC50 came out at 8.63 nM. The figure for `COc1ccc(CNC(=O)c2cc3c(=O)[nH]c(-c4ccc5c(c4)OCCO5)cn3n2)cc1OC` [6-76] is 1.87 nM; for `COc1ccc(CCNC(=O)c2cc3c(=O)[nH]c(-c4ccc5c(c4)OCCO5)cn3n2)cc1OC` [6-77] it is 2.28 nM. The figure for `C[C@@H](NC(=O)c1cc2c(=O)[nH]c(-c3ccc4ccccc4c3)cn2n1)c1ccc(F)cc1` [6-78] is 2.97 nM. Under `C[C@H](NC(=O)c1cc2c(=O)[nH]c(-c3ccc4ccccc4c3)cn2n1)c1ccc(F)cc1` [6-79] stands 4.57 nM; under `COc1ccc(CNC(=O)c2cc3c(=O)[nH]c(-c4ccc(C)c(Cl)c4)cn3n2)cc1OC` [6-80], 2.2 nM; under `Cc1ccc(-c2cn3nc(C(=O)N[C@H](C)c4ccc(F)cc4)cc3c(=O)[nH]2)cc1Cl` [6-81], 2.8 nM.

Consider `Cc1ccc(-c2cn3nc(C(=O)N[C@@H](C)c4ccc(F)cc4)cc3c(=O)[nH]2)cc1Cl` [6-82], for which the IC50 is 1.8 nM. The figure for `C[C@H](NC(=O)c1cc2c(=O)[nH]c(-c3ccc4c(c3)N(C)CCO4)cn2n1)c1ccc(F)cc1` [6-83] is 3.55 nM.

As for `NC(=O)[C@H](NC(=O)c1cc2c(=O)[nH]c(-c3ccc4ccccc4c3)cn2n1)c1ccccc1` [6-84], the IC50 is 5.4 nM. The figure for `COc1ccc(CCNC(=O)c2nn3cc(-c4ccc5ccccc5c4)[nH]c(=O)c3c2C(C)C)cc1OC` [6-85] is 0.887 nM. The figure for `COc1ccc(CCNC(=O)c2cc3c(=O)[nH]c(-c4ccc5c(c4)N(C)CCO5)cn3n2)cc1OC` [6-86] is 1.95 nM.

As to `COc1ccc([C@@H](C)NC(=O)c2nn3cc(-c4ccc(Cl)c(F)c4)[nH]c(=O)c3c2C2CC2)cn1` [6-87], the IC50 came out at 0.93 nM. Under `O=C(NCC(O)(C(F)(F)F)C(F)(F)F)c1nn2cc(-c3ccc(Cl)c(F)c3)[nH]c(=O)c2c1C1CC1` [6-88] stands 4.55 nM. The figure for `O=C(N[C@@H](c1ccc(F)cc1)C(F)(F)CO)c1nn2cc(-c3ccc(Cl)c(F)c3)[nH]c(=O)c2c1C1CC1` [6-95] is 1.73 nM; for `O=C(NC1(c2ccc(F)cc2)CN(CC(F)(F)F)C1)c1nn2cc(-c3ccc(Cl)c(F)c3)[nH]c(=O)c2c1C1CC1` [6-103] it is 0.74 nM.

In the case of `O=C(NC1(c2ccc(F)cc2)CN(C2CC2)C1)c1nn2cc(-c3ccc(Cl)c(F)c3)[nH]c(=O)c2c1C1CC1` [6-104], the IC50 was 1.25 nM. Under `O=C(N[C@H](CN1CCOCC1)c1ccc(F)cc1)c1nn2cc(-c3ccc(Cl)c(F)c3)[nH]c(=O)c2c1C1CC1` [6-106] stands 0.61 nM. The figure for `O=C(NC1(c2ccc(F)cc2)CN(CC(F)F)C1)c1nn2cc(-c3ccc(Cl)c(F)c3)[nH]c(=O)c2c1C1CC1` [6-108] is 1.3 nM; for `CC(C)(O)[C@@H](NC(=O)c1nn2cc(-c3ccc4ccccc4c3)[nH]c(=O)c2c1C#N)c1ccc(F)cc1` [6-110] it is 4 nM. The figure for `CCn1cc(CNC(=O)c2nn3cc(-c4ccc(C)c(C)c4)[nH]c(=O)c3c2Cl)c(C)n1` [6-112] is 1.14 nM. For the molecule `CC[C@@H](C)NC(=O)c1nn2cc(-c3ccc(C)c(C)c3)[nH]c(=O)c2c1C(F)(F)F` [6-113], the IC50 turned out to be 3.4 nM. The figure for `Cc1ccc(-c2cn3nc(C(=O)N[C@H](C)C(C)C)c(C(F)(F)F)c3c(=O)[nH]2)cc1C` [6-114] is 3.15 nM; for `Cc1ccc(-c2cn3nc(C(=O)N[C@@H](C)C4CC4)c(C(F)(F)F)c3c(=O)[nH]2)cc1C` [6-119] it is 1.09 nM.

As for `Cc1ccc(-c2cn3nc(C(=O)N[C@H](C)C4CC4)c(C(F)(F)F)c3c(=O)[nH]2)cc1C` [6-120], the IC50 turned out to be 0.78 nM. Under `Cc1ccc(-c2cn3nc(C(=O)N[C@H](CCO)c4ccc(F)cc4)cc3c(=O)[nH]2)cc1Cl` [6-122] stands 0.88 nM.

For the origin of these results see patent publication US20220324865A1 (Bayer Aktiengesellschaft, priority 2018, published 2022).
